Test results taken from paper PMC6881293, “Nanomolar-potency ‘co-potentiator’ therapy for cystic fibrosis caused by a defined subset of minimal function CFTR mutants” (Scientific Reports, 2019).
One block for each molecule: values may come before it.

Key:
Type in all cases: cell-based
[1] = target: T1, W1282X-CFTR (Homo sapiens, UniProt P13569); experiment: Short-circuit current in FRT cells expressing W1282X-CFTR; settings: VX-809-corrected W1282X-CFTR-expressing FRT cells; for increase in VX-770 current: forskolin and 5 μM VX-770; for EC50: in the presence of forskolin and 5 μM VX-770
T1 construct: expressed in transfected cells
Description: Given the utility of co-potentiators as possible CF therapeutics for several minimal function CFTR mutants, a screen was done to identify novel co-potentiator scaffolds. Screening used FRT cells stably expressing W1282X-CFTR and the halide-sensitive EYFP-H148Q/I152L/F46L (YFP) that were treated for 24 hours with 3 μM VX-809 to increase CFTR1281 cell surface expression (Fig. 4A). Just prior to assay cells were treated for 10 min with test compounds at 25 μM together with 20 μM forskolin and 15 nM VX-770. CFTR channel activity was deduced from the initial rate of YFP fluorescence quenching in response to addition of iodide-substituted phosphate buffered saline. Primary screening of 120,000 drug-like synthetic small molecules identified 212 compounds giving channel activity >50% of that produced by forskolin, VX-770 and 20 μM ASP-11 (Fig. 4B). […] Each of these compounds added to VX-809-corrected FRT cells expressing W1282X-CFTR produced little current without VX-770 (Fig. 4E).
Figure 4 Novel co-potentiators identified by high-throughput screening. (A) Assay design. (B) Summary of screening workflow and results. (C) Chemical structures of novel co-potentiators identified by screening. (D) Representative short-circuit current data in FRT cells expressing W1282X-CFTR. Concentrations: 20 μM forskolin (fsk), 5 μM VX-770 (n = 3). (E) Effects of sequential addition of 20 μM forskolin followed by 20 μM of A-01, B-01, C-01 and D-01, and 5 μM of VX-770 in FRT cells expressing W1282X-CFTR. CFTRinh-172 was used at 10 μM in all experiments.
(§1) Short-circuit current was measured on cells cultured on Snapwell clear permeable supports (Corning) as described[10],[11]. Hemichambers were connected to a DVC-1000 voltage clamp (World Precision Instruments Inc., Sarasota, FL) via Ag/AgCl electrodes and 3 M KCl agar bridges for recording of the short-circuit current. For human airway epithelial cells, symmetrical HCO3^−-buffered solutions (in mM: 120 NaCl, 5 KCl, 1 MgCl2, 1 CaCl2, 5 Hepes, 25 NaHCO3, 10 glucose, pH 7.4) for basolateral and apical side were used. For FRT cells, the basolateral membrane was permeabilized with 250 μg/ml amphotericin B, and experiments were done with a chloride gradient using a HCO3^−-buffered solutions (Basolateral (mM): 120 NaCl, 5 KCl, 1 MgCl2, 1 CaCl2, 5 Hepes, 25 NaHCO3, 10 glucose, pH 7.4; apical (mM): 60 NaCl, 60 mM sodium gluconate, 5 KCl, 1 MgCl2, 1 CaCl2, 5 Hepes, 25 NaHCO3, 10 glucose, pH 7.4). All cells were equilibrated with 95% O2, 5% CO2 and maintained at 37 °C during experiments.

[2] = target: T1, W1282X-CFTR; experiment: Structure-activity testing of analogs in FRT cells expressing W1282X-CFTR
Description: To establish structure-activity relationships, 240 commercially available piperidinepyridoindole analogs and 160 pyrazoloquinoline analogs were tested in FRT cells expressing W1282X-CFTR. In general, the methoxy substituent on the 4-position (R^3) on the pyridoindole ring increased potency (compare A01 vs A534). N-methylation on the pyridoindole ring abolished activity (compare A534 vs A600). For substituent R^1 on the piperidine ring, substituted benzyl gave greatest activity (A061 and A662). Other R^1 substituents, including sulfonamide (A145), alkyl (A764) and carbocyclic (A714), reduced activity. Changing the benzylic carbon from methylene (CH2) to ketone (C=O) abolished activity (A815, A350 and A956).
For R^3, pyridine (D003), benzyl (D035) and substituted methyl-pyrazole (D086) abolished activity. […] The D123 pyrazoloquinoline with R^3 substituted with thiophene-quinoline heterocycle gave the best potency.

[3] = target: T2, Q1313X-CFTR (Homo sapiens, UniProt P13569); experiment: Short-circuit current in FRT cells expressing Q1313X-CFTR; settings: Q1313X-CFTR FRT cells, 20 μM forskolin; for short-circuit current response when added after VX-770: 5 μM VX-770, 20 μM P2, P3, P5, ASP-11, 25 μM apigenin
T2 construct: expressed in transfected cells
Description: As shown in Fig. 1C and summarized in Fig. 2, ASP-11 acted in synergy with VX-770 to increase chloride current in FRT cells expressing the NBD2 mutations I1234del- and Q1313X-CFTR by ~3–9-fold compared to VX-770. I1234del- and Q1313X-CFTR-expressing cells were also treated with VX-809 for 24 hours (to consider the effect of available CFTR therapeutics) with 2–3-fold greater currents observed.
Studies on FRT cells expressing Q1313X-CFTR produced similar data (Fig. 3C).
(§2) Figures 5C,D show data in N1303K- and Q1313X-expressing FRT cells.
as §1

[4] = target: T3, N1303K-CFTR (Homo sapiens, UniProt P13569, N1303K); experiment: Short-circuit current in FRT cells expressing N1303K-CFTR; settings: N1303K-CFTR FRT cells; for short-circuit current response when added after VX-770: 20 μM forskolin, 5 μM VX-770, then 20 μM compound
T3 construct: expressed in transfected cells
Description: Based on prior studies[10],[11],[20], we hypothesized that distinct binding sites may be required to bind a potentiator and co-potentiator to rescue channel activity of CFTR mutants. We defined the potentiator VX-770 as a Class I compound, and co-potentiator ASP-11 as a Class II compound (Fig. 3A,D). Short-circuit current measurements in N1303K-CFTR-expressing FRT cells confirmed synergy when ASP-11 was added after VX-770 (Fig. 3Bi). […] In each experiment, CFTRinh-172 confirmed that current was from CFTR.
Figure 3 Definition of Class I and II CFTR potentiators. (A) Chemical structures of Class I and II potentiators. (B) Short-circuit current in FRT cells expressing N1303K-CFTR in response to forskolin and indicated potentiators. Concentrations: 20 μM forskolin, 5 μM VX-770, 20 μM ASP-11, 20 μM GLPG1837, 20 μM P2, 20 μM P3, 20 μM P5, 20 μM W1282Xpot-C01, and 10 μM CFTRinh-172. C. Short-circuit current in FRT cells expressing Q1313X-CFTR in response to forskolin and indicated potentiators. Concentrations: as in panel B, and 25 μM apigenin. (D) Summary of relative N1303K-CFTR activation in response to combinations of Class I and Class II potentiators. Mean ± S.E.M., n = 3. TEXT PRINTED IN THE PICTURE: (D) VX-770: N1303K-CFTR: P5: 1% ±1%; N1303K-CFTR: GLPG 1837: 10% ±5%; N1303K-CFTR: ASP-11: 100% ±3%; N1303K-CFTR: apigenin: 100% ±5% | (D) P5: N1303K-CFTR: VX-770: 1% ±1%; N1303K-CFTR: GLPG 1837: 2% ±2%; N1303K-CFTR: ASP-11: 52% ±5%; N1303K-CFTR: apigenin: 56% ±5% | (D) GLPG 1837: N1303K-CFTR: VX-770: 0% ±5%; N1303K-CFTR: P5: 2% ±2%; N1303K-CFTR: ASP-11: 100% ±4%; N1303K-CFTR: apigenin: 98% ±5% | (D) ASP-11: N1303K-CFTR: VX-770: 100% ±3%; N1303K-CFTR: P5: 47% ±4%; N1303K-CFTR: GLPG 1837: 100% ±5%; N1303K-CFTR: apigenin: 7% ±3% | (D) apigenin: N1303K-CFTR: VX-770: 100% ±5%; N1303K-CFTR: P5: 50% ±5%; N1303K-CFTR: GLPG 1837: 100% ±5%; N1303K-CFTR: ASP-11: 5% ±2% DOUBTS OF THE COPYIST ABOUT THIS PICTURE: Panel D is a matrix of pairs of substances (row substance combined with column substance). The picture prints no name for the measure, only % values and a 0%–100% colour scale. / The print in panel D is small, so 3, 5, 6 and 8 are hard to tell apart in these values. / VX-770 / GLPG 1837: ±5% could be ±3% / VX-770 / ASP-11: ±3% could be ±5% / VX-770 / apigenin: ±5% could be ±3% / P5 / ASP-11: 52% ±5%, digits uncertain / P5 / apigenin: 56% could be 58%, and ±5% is uncertain / GLPG 1837 / VX-770: 0% ±5%, error digit uncertain / GLPG 1837 / apigenin: 98% could be 96%, and ±5% is uncertain / ASP-11 / VX-770: ±3% could be ±5% / ASP-11 / GLPG 1837: ±5% could be ±3% / ASP-11 / apigenin: 7% ±3%, error digit uncertain / apigenin / VX-770: ±5% could be ±3% / apigenin / P5: 50% ±5%, digits uncertain / apigenin / GLPG 1837: ±5% could be ±3% / apigenin / ASP-11: 5% ±2%, the 5 is uncertain
as §2, §1

[5] = Table 1, 100% Vmax corresponds to 20 μM ASP-11
[6] = Table 1, piperidine-pyridoindole analogs

T2 sequence (P13569 1-1312 limits assumed): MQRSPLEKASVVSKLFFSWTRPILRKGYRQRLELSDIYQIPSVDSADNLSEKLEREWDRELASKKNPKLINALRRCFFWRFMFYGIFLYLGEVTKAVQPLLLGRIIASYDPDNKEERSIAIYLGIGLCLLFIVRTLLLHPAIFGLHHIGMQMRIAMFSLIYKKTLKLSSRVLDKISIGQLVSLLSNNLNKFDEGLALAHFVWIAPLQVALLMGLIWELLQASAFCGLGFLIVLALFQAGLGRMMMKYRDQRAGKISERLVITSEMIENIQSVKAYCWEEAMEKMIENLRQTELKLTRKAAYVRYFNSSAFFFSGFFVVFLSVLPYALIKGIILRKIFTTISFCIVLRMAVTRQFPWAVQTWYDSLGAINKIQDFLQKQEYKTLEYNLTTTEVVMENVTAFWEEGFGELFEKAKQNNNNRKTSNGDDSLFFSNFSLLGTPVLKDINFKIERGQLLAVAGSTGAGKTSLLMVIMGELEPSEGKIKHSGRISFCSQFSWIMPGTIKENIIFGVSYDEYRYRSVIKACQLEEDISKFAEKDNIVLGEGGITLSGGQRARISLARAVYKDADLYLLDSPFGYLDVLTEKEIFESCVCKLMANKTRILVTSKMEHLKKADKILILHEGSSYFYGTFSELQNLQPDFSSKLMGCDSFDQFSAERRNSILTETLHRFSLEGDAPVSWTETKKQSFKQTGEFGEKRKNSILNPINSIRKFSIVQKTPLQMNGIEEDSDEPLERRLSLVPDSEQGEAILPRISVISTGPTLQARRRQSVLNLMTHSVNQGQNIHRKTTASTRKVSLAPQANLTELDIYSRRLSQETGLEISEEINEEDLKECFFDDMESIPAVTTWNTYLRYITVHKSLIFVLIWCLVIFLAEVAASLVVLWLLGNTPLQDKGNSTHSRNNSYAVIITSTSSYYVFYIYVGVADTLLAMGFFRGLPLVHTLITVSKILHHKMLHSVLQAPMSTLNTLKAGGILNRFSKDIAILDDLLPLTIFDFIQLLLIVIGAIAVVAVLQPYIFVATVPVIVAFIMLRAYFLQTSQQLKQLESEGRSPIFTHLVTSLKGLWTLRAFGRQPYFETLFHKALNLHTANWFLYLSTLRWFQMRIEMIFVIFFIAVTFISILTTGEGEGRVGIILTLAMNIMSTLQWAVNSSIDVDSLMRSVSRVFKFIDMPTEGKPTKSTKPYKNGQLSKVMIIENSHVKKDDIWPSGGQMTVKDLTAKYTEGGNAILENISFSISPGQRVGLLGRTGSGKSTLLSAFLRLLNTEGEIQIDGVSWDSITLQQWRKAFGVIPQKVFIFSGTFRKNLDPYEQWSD
T3 sequence (P13569 whole entry N1303K): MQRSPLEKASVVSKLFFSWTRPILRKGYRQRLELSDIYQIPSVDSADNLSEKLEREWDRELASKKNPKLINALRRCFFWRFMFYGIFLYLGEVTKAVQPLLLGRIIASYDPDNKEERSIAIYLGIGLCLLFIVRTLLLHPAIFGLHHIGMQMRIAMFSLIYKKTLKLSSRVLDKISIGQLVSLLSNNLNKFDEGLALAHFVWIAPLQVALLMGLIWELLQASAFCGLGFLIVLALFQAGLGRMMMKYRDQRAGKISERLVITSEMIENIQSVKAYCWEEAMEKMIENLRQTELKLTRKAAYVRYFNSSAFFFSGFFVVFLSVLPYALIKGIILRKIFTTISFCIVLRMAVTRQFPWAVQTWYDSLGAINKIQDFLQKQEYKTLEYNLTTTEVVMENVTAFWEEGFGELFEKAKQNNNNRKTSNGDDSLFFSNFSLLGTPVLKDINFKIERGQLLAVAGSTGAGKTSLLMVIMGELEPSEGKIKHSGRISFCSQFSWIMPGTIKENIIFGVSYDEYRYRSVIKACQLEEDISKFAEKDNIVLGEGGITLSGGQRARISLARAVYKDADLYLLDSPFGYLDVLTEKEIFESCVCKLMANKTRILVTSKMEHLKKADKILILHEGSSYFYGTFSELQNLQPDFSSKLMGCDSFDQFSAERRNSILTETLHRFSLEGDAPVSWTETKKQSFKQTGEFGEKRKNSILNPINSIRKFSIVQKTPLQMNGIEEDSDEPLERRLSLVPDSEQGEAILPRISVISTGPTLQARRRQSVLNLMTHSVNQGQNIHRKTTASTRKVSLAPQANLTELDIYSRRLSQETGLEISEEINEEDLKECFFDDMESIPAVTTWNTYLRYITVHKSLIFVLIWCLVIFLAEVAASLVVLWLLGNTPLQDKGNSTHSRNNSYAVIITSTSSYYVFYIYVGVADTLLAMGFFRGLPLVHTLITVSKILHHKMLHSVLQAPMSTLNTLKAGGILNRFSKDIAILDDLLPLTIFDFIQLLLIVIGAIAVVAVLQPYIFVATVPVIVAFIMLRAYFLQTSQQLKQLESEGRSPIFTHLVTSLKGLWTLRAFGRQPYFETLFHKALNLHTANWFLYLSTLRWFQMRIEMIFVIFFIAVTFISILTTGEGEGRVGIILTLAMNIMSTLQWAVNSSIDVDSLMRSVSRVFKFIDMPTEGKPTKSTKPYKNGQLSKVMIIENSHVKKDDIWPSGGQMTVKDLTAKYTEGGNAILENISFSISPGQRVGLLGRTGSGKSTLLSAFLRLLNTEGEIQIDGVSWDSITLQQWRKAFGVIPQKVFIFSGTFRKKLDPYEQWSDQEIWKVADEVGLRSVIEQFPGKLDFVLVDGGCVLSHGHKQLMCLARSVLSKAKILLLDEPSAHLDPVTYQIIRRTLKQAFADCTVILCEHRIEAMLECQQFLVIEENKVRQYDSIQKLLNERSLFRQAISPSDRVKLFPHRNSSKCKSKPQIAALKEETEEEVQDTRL
T1 sequence (P13569 1-1281 limits assumed): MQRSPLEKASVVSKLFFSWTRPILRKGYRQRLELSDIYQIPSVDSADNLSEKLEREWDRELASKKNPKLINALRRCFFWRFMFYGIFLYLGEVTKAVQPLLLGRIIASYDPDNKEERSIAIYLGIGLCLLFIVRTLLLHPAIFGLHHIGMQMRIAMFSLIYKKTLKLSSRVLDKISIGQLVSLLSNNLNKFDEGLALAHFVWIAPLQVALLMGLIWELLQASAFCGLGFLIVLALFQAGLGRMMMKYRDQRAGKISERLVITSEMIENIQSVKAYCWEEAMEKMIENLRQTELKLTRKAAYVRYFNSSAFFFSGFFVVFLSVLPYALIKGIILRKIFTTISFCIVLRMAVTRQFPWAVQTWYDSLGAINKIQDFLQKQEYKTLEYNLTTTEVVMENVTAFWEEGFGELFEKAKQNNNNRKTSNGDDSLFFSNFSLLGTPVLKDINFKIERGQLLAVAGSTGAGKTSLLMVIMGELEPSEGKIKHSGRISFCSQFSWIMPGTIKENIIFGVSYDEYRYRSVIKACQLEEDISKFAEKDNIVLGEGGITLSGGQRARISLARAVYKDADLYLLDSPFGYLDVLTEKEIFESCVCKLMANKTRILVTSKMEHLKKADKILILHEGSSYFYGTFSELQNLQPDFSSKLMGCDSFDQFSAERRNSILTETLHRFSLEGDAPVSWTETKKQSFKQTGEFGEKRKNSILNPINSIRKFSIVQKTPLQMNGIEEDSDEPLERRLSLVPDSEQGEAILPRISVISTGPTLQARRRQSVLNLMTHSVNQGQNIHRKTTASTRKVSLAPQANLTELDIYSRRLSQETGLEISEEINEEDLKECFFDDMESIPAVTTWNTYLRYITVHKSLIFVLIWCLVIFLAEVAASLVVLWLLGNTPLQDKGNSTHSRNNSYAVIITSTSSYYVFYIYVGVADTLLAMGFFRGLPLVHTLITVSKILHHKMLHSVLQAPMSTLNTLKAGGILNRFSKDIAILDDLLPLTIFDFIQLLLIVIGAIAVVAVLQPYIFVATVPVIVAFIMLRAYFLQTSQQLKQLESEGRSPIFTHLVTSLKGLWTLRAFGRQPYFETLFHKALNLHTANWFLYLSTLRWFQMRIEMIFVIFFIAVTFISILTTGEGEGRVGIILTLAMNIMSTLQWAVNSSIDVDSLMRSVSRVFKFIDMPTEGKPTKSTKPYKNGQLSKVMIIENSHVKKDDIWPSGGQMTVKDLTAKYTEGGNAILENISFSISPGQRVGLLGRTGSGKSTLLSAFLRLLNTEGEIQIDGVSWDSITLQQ

- increase in VX-770 current [1]: ~ 6 fold
- EC50 [1]: 5 µM
SMILES: O=C(CN1C(=O)CC(c2cccs2)=Nc2ccccc21)NCc1ccc(Cl)cc1 [CP-B01]

- increase in VX-770 current [1]: ~ 6 fold
- EC50 [1]: 8 µM
SMILES: CCCS(=O)(=O)N1CCCc2ccc(NS(=O)(=O)c3cccs3)cc21 [CP-C01]

- Relative Vmax (%) [2, 5]: 100%
- EC50 [2, 6]: 10 µM
- increase in VX-770 current [1]: ~ 6 fold
- EC50 [1]: 10 µM
SMILES: COc1cccc(CN2CCC3(CC2)NCCc2c3[nH]c3ccc(OC)cc23)c1 [Compound A01]

SMILES: COc1ccc2[nH]c3c(c2c1)CCNC31CCN(S(C)(=O)=O)CC1 [Compound A145]
- Relative Vmax (%) [2, 5]: 7%
- EC50 [2, 6]: > 30 µM

SMILES: c1ccc(CN2CCC3(CC2)NCCc2c3[nH]c3ccccc23)cc1 [Compound A357]
- Relative Vmax (%) [2, 5]: 31%
- EC50 [2, 6]: 16 µM

SMILES: COc1cccc(CN2CCC3(CC2)NCCc2c3[nH]c3ccccc23)c1 [Compound A534]
- Relative Vmax (%) [2, 5]: 24%
- EC50 [2, 6]: 13 µM

SMILES: COc1cccc(CN2CCC3(CC2)c2[nH]c4ccccc4c2CCN3C)c1 [Compound A600]
- Relative Vmax (%) [2, 5]: 4%
- EC50 [2, 6]: > 30 µM

SMILES: COc1ccc2[nH]c3c(c2c1)CCNC31CCN(Cc2ccc(F)c(F)c2)CC1 [Compound A662]
- Relative Vmax (%) [2, 5]: 100%
- EC50 [2, 6]: 2.6 µM

SMILES: COc1ccc2[nH]c3c(c2c1)CCNC31CCN(C2CCCCC2)CC1 [Compound A714]
- Relative Vmax (%) [2, 5]: 18%
- EC50 [2, 6]: > 30 µM

SMILES: COc1ccc2[nH]c3c(c2c1)CCNC31CCN(C)CC1 [Compound A764]
- Relative Vmax (%) [2, 5]: 6%
- EC50 [2, 6]: > 30 µM

SMILES: COc1ccc2cc3c(N)nn(C(=O)c4ccccc4Cl)c3nc2c1 [Compound D001]
- Relative Vmax (%) ([2]; Table 2, 100% Vmax corresponds to 20 μM ASP-11): 90%
- EC50 ([2]; Table 2, pyrazoloquinoline analogs): 15 µM
- increase in VX-770 current [1]: ~ 6 fold
- EC50 [1]: 15 µM

- short-circuit current response when added after VX-770 [3]: did not elevate current
- short-circuit current response when added after VX-770 [4]: did not further increase current
SMILES: CC(C)c1ccc(NC(=O)C(c2ccccc2)N(C)C(=O)Cc2c[nH]c3ccccc23)cc1 (stereo not drawn) [Compound P2]

- short-circuit current response when added after VX-770 [3]: did not elevate current
- short-circuit current response when added after VX-770 [4]: did not further increase current
SMILES: CCN(c1ccccc1)S(=O)(=O)c1ccc2[nH]cc(C(=O)NCc3ccccc3OC)c(=O)c2c1 [Compound P3]

SMILES: NC(=O)c1c(NC(=O)c2ccccc2Cl)sc2c1CCCC2 [Compound P5]
- short-circuit current response when added after VX-770 [3]: did not elevate current
- short-circuit current response when added after VX-770 [4]: did not further increase current

- activation by two Class II potentiators added together ([4]; 20 μM W1282Xpot-C01 and 20 μM ASP-11, no Class I potentiator): little activation
- short-circuit current response when added after VX-770 [4]: activated N1303K-CFTR
SMILES: Cc1cc(C)cc(N(Cc2ccc(Cl)cc2)S(=O)(=O)c2cccn3c(C)nnc23)c1 [W1282Xpot-C01]

- short-circuit current response when added after VX-770 [3]: showed synergy
- short-circuit current response when added after GLPG1837 ([3]; 20 μM GLPG1837): showed synergy
SMILES: O=c1cc(-c2ccc(O)cc2)oc2cc(O)cc(O)c12 [apigenin]
